# Test results as given in patent US7670416B2, “Use of a combination of substances to prevent biofouling organisms” (I-Tech AB, priority 2005, dated 2010).
# Key:
# Enteromorpha = test: algae spore germination test (Enteromorpha biofouling); assay type: in vivo
# Description: (§1) The efficacy of algicides is usually tested by a spore germination test. Algae are collected from the field and grown in the laboratory. […] The water with test compound is then removed and culture medium is added. The spores are left to germinate under fluorescent lamps (50 μm-2s-1 (PAR)), 16 h light, 8 h darkness, for 7 days in a culture medium, which is changed once a day.
# (§2) All the different brands are tested in combination with Catemine 1 for efficacy against both barnacles and algae with the two compounds together or separate. The assays that are be used are the cyprid settling rate assay and the algae germination test.
# Barnacle cyprid larvae = test: cyprid settling rate assay (barnacle biofouling); assay type: in vivo
# Excerpt: The assays that are be used are the cyprid settling rate assay and the algae germination test.
# barnacle cyprids = conditions: reference (6); cited from earlier work
# algae = conditions: reference (6); target protein lacking within algae; cited from earlier work
# Ulva = test: algae spore germination test (Ulva biofouling);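 further: ulva spores exposed to test compound, then compound removed and spores germinated in culture medium under fluorescent light, 16 h light and 8 h dark, for 7 days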
# Description: as §1, §2
# [1] = 0.1 nM Catemine 1 alone (Table 2)
# [2] = 0.1 nM Catemine 1 alone (Table 4)
# [3] = 1 nM Catemine 1 alone (Table 2)
# [4] = 1 nM Catemine 1 alone (Table 4)
# [5] = 10 nM Catemine 1 alone (Table 2)
# [6] = 10 nM Catemine 1 alone (Table 4)
# [7] = 100 nM Catemine 1 alone (Table 2)
# [8] = 100 nM Catemine 1 alone (Table 4)
compound,measurement,setting,value
"CSc1nc(NC2CC2)nc(NC(C)(C)C)n1 [Irgarol, 2-methylthio-4-tert-butylamino-6-cyclopropylamino-s-triziane]",Enteromorpha biofouling (% survival),Enteromorpha; 0.1 nM Irgarol alone,100%
same,Enteromorpha biofouling (% survival),Enteromorpha; 1 nM Irgarol alone,100%
same,Enteromorpha biofouling (% survival),Enteromorpha; 10 nM Irgarol alone,50%
same,Enteromorpha biofouling (% survival),Enteromorpha; 100 nM Irgarol alone,0%
same,Barnacle biofouling (% settlement),Barnacle cyprid larvae; 0.1 nM Irgarol alone,100%
same,Barnacle biofouling (% settlement),Barnacle cyprid larvae; 1 nM Irgarol alone,100%
same,Barnacle biofouling (% settlement),Barnacle cyprid larvae; 10 nM Irgarol alone,100%
same,Barnacle biofouling (% settlement),Barnacle cyprid larvae; 100 nM Irgarol alone,100%
"Cc1cccc(C(C)c2c[nH]cn2)c1C (racemic) [Catemine 1, (+/−)-4-[1-(2,3-dimethylphenyl)ethyl]-1H-imidazole]",action on barnacle cyprids,barnacle cyprids,specific action
same,effect of algal growth,algae,no effect
same,Enteromorpha biofouling (% survival),Enteromorpha; 0.1 nM Catemine 1 alone,100%
same,Enteromorpha biofouling (% survival),Enteromorpha; 1 nM Catemine 1 alone,100%
same,Enteromorpha biofouling (% survival),Enteromorpha; 10 nM Catemine 1 alone,100%
same,Enteromorpha biofouling (% survival),Enteromorpha; 100 nM Catemine 1 alone,100%
same,Ulva biofouling (% survival),Ulva; 0.1 nM Catemine 1 alone,100%
same,Ulva biofouling (% survival),Ulva; [1],100%
same,Ulva biofouling (% survival),Ulva; [2],100%
same,Ulva biofouling (% survival),Ulva; 1 nM Catemine 1 alone,100%
same,Ulva biofouling (% survival),Ulva; [3],100%
same,Ulva biofouling (% survival),Ulva; [4],100%
same,Ulva biofouling (% survival),Ulva; 10 nM Catemine 1 alone,100%
same,Ulva biofouling (% survival),Ulva; [5],100%
same,Ulva biofouling (% survival),Ulva; [6],100%
same,Ulva biofouling (% survival),Ulva; 100 nM Catemine 1 alone,100%
same,Ulva biofouling (% survival),Ulva; [7],100%
same,Ulva biofouling (% survival),Ulva; [8],100%
same,Barnacle biofouling (% settlement),Barnacle cyprid larvae; 0.1 nM Catemine 1 alone,100%
same,Barnacle biofouling (% settlement),Barnacle cyprid larvae; [1],100%
same,Barnacle biofouling (% settlement),Barnacle cyprid larvae; 0.1 nM Catemine 1 alone (Table 3),100%
same,Barnacle biofouling (% settlement),Barnacle cyprid larvae; [2],100%
same,Barnacle biofouling (% settlement),Barnacle cyprid larvae; 1 nM Catemine 1 alone,10%
same,Barnacle biofouling (% settlement),Barnacle cyprid larvae; [3],10%
same,Barnacle biofouling (% settlement),Barnacle cyprid larvae; 1 nM Catemine 1 alone (Table 3),10%
same,Barnacle biofouling (% settlement),Barnacle cyprid larvae; [4],10%
same,Barnacle biofouling (% settlement),Barnacle cyprid larvae; 10 nM Catemine 1 alone,0%
same,Barnacle biofouling (% settlement),Barnacle cyprid larvae; [5],0%
same,Barnacle biofouling (% settlement),Barnacle cyprid larvae; 10 nM Catemine 1 alone (Table 3),0%
same,Barnacle biofouling (% settlement),Barnacle cyprid larvae; [6],0%
same,Barnacle biofouling (% settlement),Barnacle cyprid larvae; 100 nM Catemine 1 alone,0%
same,Barnacle biofouling (% settlement),Barnacle cyprid larvae; [7],0%
same,Barnacle biofouling (% settlement),Barnacle cyprid larvae; 100 nM Catemine 1 alone (Table 3),0%
same,Barnacle biofouling (% settlement),Barnacle cyprid larvae; [8],0%
"CN(C)S(=O)(=O)N(SC(F)(Cl)Cl)c1ccccc1 [Dichlofluanid, N′-dimethyl-N-phenylsulphamide]",Ulva biofouling (% survival),Ulva; 0.1 μg/ml Dichlofluanid alone,100%
same,Ulva biofouling (% survival),Ulva; 1 μg/ml Dichlofluanid alone,90%
same,Ulva biofouling (% survival),Ulva; 10 μg/ml Dichlofluanid alone,10%
same,Ulva biofouling (% survival),Ulva; 100 μg/ml Dichlofluanid alone,0%
same,Barnacle biofouling (% settlement),Barnacle cyprid larvae; 0.1 μg/ml Dichlofluanid alone,100%
same,Barnacle biofouling (% settlement),Barnacle cyprid larvae; 1 μg/ml Dichlofluanid alone,50%
same,Barnacle biofouling (% settlement),Barnacle cyprid larvae; 10 μg/ml Dichlofluanid alone,25%
same,Barnacle biofouling (% settlement),Barnacle cyprid larvae; 100 μg/ml Dichlofluanid alone,0%
"CN(C)C(=O)Nc1ccc(Cl)c(Cl)c1 [Diuron, 3-(3,4-dichlorophenyl)-1,1-dimethylurea]",Ulva biofouling (% survival),Ulva; 0.1 μM Diuron alone,100%
same,Ulva biofouling (% survival),Ulva; 1 μM Diuron alone,90%
same,Ulva biofouling (% survival),Ulva; 10 μM Diuron alone,50%
same,Ulva biofouling (% survival),Ulva; 100 μM Diuron alone,0%
same,Barnacle biofouling (% settlement),Barnacle cyprid larvae; 0.1 μM Diuron alone,100%
same,Barnacle biofouling (% settlement),Barnacle cyprid larvae; 1 μM Diuron alone,100%
same,Barnacle biofouling (% settlement),Barnacle cyprid larvae; 10 μM Diuron alone,100%
same,Barnacle biofouling (% settlement),Barnacle cyprid larvae; 100 μM Diuron alone,100%
"CCCCCCCCn1sc(Cl)c(Cl)c1=O [SeaNine, 4,5-dichloro-2-n-octyl-3(2H)-isothiazolone]",Ulva biofouling (% survival),Ulva; 0.1 nM SeaNine alone,100%
same,Ulva biofouling (% survival),Ulva; 1 nM SeaNine alone,50%
same,Ulva biofouling (% survival),Ulva; 10 nM SeaNine alone,10%
same,Ulva biofouling (% survival),Ulva; 100 nM SeaNine alone,0%
same,Barnacle biofouling (% settlement),Barnacle cyprid larvae; 0.1 nM SeaNine alone,100%
same,Barnacle biofouling (% settlement),Barnacle cyprid larvae; 1 nM SeaNine alone,50%
same,Barnacle biofouling (% settlement),Barnacle cyprid larvae; 10 nM SeaNine alone,10%
same,Barnacle biofouling (% settlement),Barnacle cyprid larvae; 100 nM SeaNine alone,0%
